Results as given in patent publication US8835446B2, “Quinazoline derivatives and pharmaceutical compositions thereof” (Nippon Shinyaku Co., Ltd., priority 2005, dated 2014).

What was measured:
Guinea Pigs = assay: Test for skin sensitization in guinea pigs (adjuvant and patch test method)
Method: The dorsal area of male Hartley guinea pigs (n=5) at the age of 7 weeks was shaved with an electric shaver, and on the following day, primary sensitization was initiated. In the primary sensitization, emulsified complete Freund's adjuvant was intradermally administered at a dose of 0.1 ml only at the initial time, and an adhesive plaster for a patch test spread with 0.1 g of an ointment containing a test compound at 1%, was applied in an occluded state to the site where the adjuvant was intradermally administered. As a base of the ointment, petrolatum containing sorbitan sesquioleate (a surfactant) at 1% was used. At 24 hours after the adhesive plaster for a patch test was applied, the adhesive plaster was removed, and the application site was cleaned by wiping. The procedure of this primary sensitization was performed once daily and continued for a total of 3 days. On 7 days after the initial application of the primary sensitization, secondary sensitization was performed. The site subjected to the primary sensitization was shaved, and an ointment containing sodium lauryl sulfate at 10% was applied thereto in an open state. After 24 hours, the application site was cleaned by wiping, and a lint cloth spread with 0.2 g of the ointment containing a test compound at 1% was applied, thereto in an occluded state. At 48 hours after the lint cloth was applied, the cloth was removed, and the application site was cleaned by wiping. Challenge was performed on 13 days after initiation of the secondary sensitization. The dorsal area and flank area were shaved, and 0.01 g of the ointment containing a test compound at 1% was applied to the challenge site and left for about 24 hours. At about 24 hours and 48 hours after the challenge, observation of the skin surface was performed, and the presence or absence of sensitizing was determined. The determination was carried out by scoring according to the evaluation criteria (see Table 1) of the Draize method (1959).
In this connection, as a positive control, 1-chloro-2,4-dinitrobenzene (DNCB) (sensitization: 1%, challenge: 0.1%) was used. As the test compound, the compounds of Example 58 and Example 248 were used. As a comparative control, 4-[((1S,2R)-2-{[amino(imino)methyl]amino}cyclohexyl)amino]-N-isobutyl-6-methylquinazoline-2-carboxamide dihydrochloride described in Example 383 in Patent document 1 (sensitization: 0.1%, induction: 1%) was used.

Rabbits = conditions: female, Kbs: JW, rabbit, in vivo, 24 h
From the text: Then, erythema and edema formation at the application site was observed. […] The mean value of the sum of erythema and edema scores was used as a simple primary skin irritation index. […]

Mice [1] = assay: Effect on scratching behavior induced by serotonin application in mice; format: in vivo, mouse; conditions: counted for 15 minutes
Method: To the cervical and dorsal area of male ICR mice (n=3 to 6) at the age of 4 to 6 weeks, 100 μl of a solution obtained by dissolving serotonin hydrochloride in ethanol at 0.1% (hereinafter referred to as serotonin) was applied, and the number of scratching behavior at the application site with the hind legs occurring immediately after the application was counted for 15 minutes after administration with a counter. Administration of a test compound was carried out by skin application, intravenous administration or oral administration. In the case of skin application, the test compound that was dissolved in ethanol was applied in an amount of 100 μl concurrently with serotonin. In the case of intravenous administration, the test compound that was dissolved in physiological saline was administered at a dose of 10 ml/kg at 5 minutes prior to the serotonin application. In the case of oral administration, the test compound that was dissolved in distilled water was administered at a dose of 10 ml/kg at 20 minutes prior to the serotonin application. The control group of each administration route was given the respective solvent, and the values of scratching behavior were compared between the control group and the test compound group.
The results obtained by skin application of the test compound are shown in Table 3; the results obtained by intravenous administration of the test compound are shown in Table 4; and the results obtained by oral administration of the test compound are shown in Table 5.

Mice [2] = assay: Acute toxicity test in mice; format: in vivo, mouse; conditions: intravenous, 10 mg/kg; observed for 2 hours
From the text: Male ICR mice at the age of 4 to 6 weeks were used.

[3] = positive control, sensitization: 1%, challenge: 0.1%, n=5
[4] = skin application, concentration 0.1% in ethanol, concurrently with serotonin
[5] = oral administration, dose 30 mg/kg, 20 minutes prior to serotonin

Row | SMILES | edema (Draize score, cases) (Guinea Pigs; guinea pig, in vivo) | erythema (Draize score, cases) (Guinea Pigs; male, Hartley, guinea pig, in vivo) | Simple primary skin irritation index (Rabbits) | edema (Draize score, cases) (Guinea Pigs; [3]) | erythema (Draize score, cases) (Guinea Pigs; [3]) | Average number of scratching behavior (Mice [1]; [4]) | Change in behavior (Mice [2]) | Average number of scratching behavior (Mice [1]; [5])
1 | Cc1ccc2nc(C(=O)NCC(C)C)nc(N[C@H]3CCCC[C@H]3NC(=N)N)c2c1.Cl.Cl [Comparative control A, 4-[((1S,2R)-2-{[amino(imino)methyl]amino}cyclohexyl)amino]-N-isobutyl-6-methylquinazoline-2-carboxamide dihydrochloride] | edema was not observed in all the cases | well-defined erythema (score 2) was observed in 2/5 cases | 1.8 |  |  |  |  | 
2 | O=[N+]([O-])c1ccc(Cl)c([N+](=O)[O-])c1 [DNCB, 1-chloro-2,4-dinitrobenzene] |  |  |  | score 1 in 3/5 cases, and score 0 in 2/5 cases | score 3 in 3/5 cases, score 2 in 1/5 cases, and score 1 in 1/5 cases |  |  | 
3 | Cc1ccc2nc(C(=O)NCC(C)C)nc(N[C@H]3CCCC[C@H]3NC(N)=NO)c2c1.Cl.Cl [Example 212, 4-[((1S,2R)-2-{[amino(hydroxyimino)methyl]amino}cyclohexyl)amino]-N-isobutyl-6-methylquinazolin-2-carboxamide dihydrochloride] |  |  | 0.8 |  |  | 49.8 | No obvious change | 
4 | COCCCNC(=O)c1nc(N[C@H]2CCCC[C@H]2NC(N)=NOC)c2cc(C)ccc2n1.Cl.Cl [Example 239, 4-[((1S,2R)-2-{[amino(methoxyimino)methyl]amino}cyclohexyl)amino]-N-(3-methoxypropyl)-6-methylquinazolin-2-carboxamide dihydrochloride] |  |  | 1.0 |  |  | 55.8 | No obvious change | 88.6
5 | COCCCNC(=O)c1nc(N[C@H]2CCCC[C@H]2NC(N)=NO)c2cc(C)ccc2n1.Cl.Cl [Example 240, 4-[((1S,2R)-2-{[amino(hydroxyimino)methyl]amino}cyclohexyl)amino]-N-(3-methoxypropyl)-6-methylquinazolin-2-carboxamide dihydrochloride] |  |  | 1.0 |  |  | 65.3 | No obvious change | 95.2
